How the values were obtained:
TGF-beta1 signaling = TGF-beta1 signaling inhibition: phosphorylated Smad2 Western blot in HepG2 cells; assay type: cell-based
Protocol: Inhibition of TGF-beta1 signaling by the peptide of Example 1 was confirmed in accordance with the following experimental method.
Treatment of HepG2 cells with TGF-beta1 is known to result in apoptosis, during which Smad2 is first phosphorylated (Park T J. et al., Mol. Carcinog. 47:784-796, 2008; and Gressner A M. et al., J Hepatol. 26:1079-1092, 1997). Using these properties, the experiment was carried out as follows. 1×10^6 of HepG2 cells (ATCC; American Type Culture Collection) were seeded in a 60 mm dish, stabilized overnight, and then depleted of nutrients by serum-free media (SFM) for 24 hours. Prior to treatment of the cells with the peptide of Example 1, 5 ng/mL of TGF-beta1 (PromoKine, Germany) and the above peptide (1, 5, and 25 μM) were subjected to pre-incubation at 37° C. for 1 hour. Further, DMSO (2 μl/mL) was also pre-incubated with TGF-beta1 (5 ng/mL) at 37° C. for 1 hour. Then, the cells were treated with the pre-incubated solutions for 30 minutes, followed by extraction of proteins. In addition, the cells were previously treated only with […] of SB431542 (TOCRIS, USA), an inhibitor of the TGF-beta receptor, followed by incubation for 1 hour, and then treated with TGF-beta1 (5 ng/mL) for 30 minutes. Then, the cells were homogenized on ice in Radioimmunoprecipitation (RIPA) Lysis Buffer (Millipore) {50 mM Tris-HCl (pH 7.4), 150 mM NaCl, 0.25% deoxycholic acid, 1% NP-40, 1 mM ethylenediaminetetraacetic acid (EDTA), 1 mM phenylmethylsulfonyl fluoride (PMSF), 40 mM NaF, 1 mM Na3VO4, 1 mM dithiothreitol (DTT)}. […]
FIG. 3 illustrates the Western blot results (Lane 1: non-treated HepG2 cells, Lane 2: TGF-beta1-treated cells, Lane 3: TGF-beta1/SB431542-treated cells, Lanes 4, 5 and 6: cells treated with 1, 5, and 25 μM of peptide/TGF-beta1, respectively, and Lane 7: TGF-beta1/DMSO-treated cells). […] The bottom of FIG. 3 illustrates the Coomassie Blue staining results of the membrane used in Western blot, showing that the quantity of the protein is the same in all the lanes.

degenerated disc tissue = assay: Disc regeneration effects by disc tissue staining (H&E) in disc degeneration model; assay type: in vivo, rabbits (New Zealand white rabbits); conditions: 0.5 mM/animal, local intradiscal injection twice
Protocol: 30 rabbits (New Zealand white rabbits; Orient Bio Inc.), weighing 3 to 3.5 kg, were prepared irrespective of sex.
The rabbits were anesthetized by intramuscular injection of 5 mg/kg of xylazine (Rompun, Bayer) and 35 mg/kg of ketamine hydrochloride (Ketalar, Pfizer). Prior to the procedure, lateral plain X-ray using a fluoroscopic apparatus (Model VPX-200; Toshiba Co.) was obtained to establish the pre-injection baseline height of intervertebral disc. The baseline control refers to a standard for measurement of a disc space. After the rabbits were positioned on the laboratory table, L23, L34, L45, and L56 disc levels were confirmed by the machine, and annulus fibrosus was stabbed into the posterolateral side of the disc at L23, L45, and L56 levels, using an 18G needle. After recovery from the anesthesia, the animals were housed in a cage under the following breeding conditions: temperature 20-25° C., humidity 10%-50%, and Light/Dark (L/D) cycle: (light from 08:00 a.m. to 20:00 p.m.). All animals were fed once a day. X-ray photographs were taken 2 and 4 weeks after the initial annular puncture. The X-ray was taken after anesthesia. Based on the results of X-ray, an intervertebral disc height (IVD height) was measured. From the measurement results, disc degeneration degree was quantified by a modification of the method disclosed in Lu et al., Spine. 22:1828-34, 1997.
Thereafter, experiments were carried out for two separate groups, DMSO-administered control group and Example 1 peptide-administered experimental group, and the rabbits were euthanized by injection of ketamine (25 mg/kg) and sodium pentobarbital (1.2 g/kg, Nembutal, Ovation) according to the planned schedule, followed by extraction of the disc for histological and biochemical analysis, respectively.
Disc-degenerated rabbits from Section 2-1 were divided into two groups. Each group was given dimethyl sulfoxide (DMSO) and the peptide of Example 1 (0.5 mM/animal) by local intradiscal injection twice. The administration point for each group was 4 weeks after the induction of disc degeneration and 2 weeks thereafter. After the second administration, the animals were raised for 2, 4, and 8 weeks, respectively. At Weeks 4, 6, and 10 after the first administration of each of the Example 1 peptide and DMSO, the corresponding respective disc tissues were extracted and fixed in formalin. The fixed disc tissues were embedded in paraffin, and serial sections having a thickness of […] along the sagittal plane were prepared. Of these sections, two mid-sagittal sections were stained with hematoxylin and eosin (H&E). For the comparison with the normal disc tissue, the disc was extracted, treated and stained from the rabbits with no induction of disc degeneration according to the same method described above. […]

aggrecan gene = assay: Aggrecan gene expression in disc tissues by real-time PCR in disc degeneration model; assay type: in vivo, rabbits (New Zealand white rabbits); conditions: Week 4 after first administration; 0.5 mM/animal intradiscal at Weeks 0 and 2
Protocol: Real-time PCR was carried out to examine a gene expression level of aggrecan, which is a representative extracellular matrix component in disc tissues.
In the same manner as in Example 2-1, animals were prepared and divided into two groups, to each of which DMSO and the peptide of Example 1 (0.5 mM/animal) were administered by local intradiscal injection. The administration point for each group was 4 weeks after the induction of disc degeneration and 2 weeks thereafter. After the second administration, the animals were raised for 2, 4, and 8 weeks, respectively. […]
The quantity of mRNA of GAPDH and aggrecan was examined by a Prism 7900HT (ABI) using PowerSYBR Green PCR Master Mix (Applied Biosystems Inc.). […] GAPDH was selected as a reference gene, and a CT value difference (ΔCT) between the reference gene and the aggrecan gene was calculated. In addition, a CT value difference (ΔΔCT) between the normal disc and the Example 1 peptide-administered disc (or DMSO-administered disc) was calculated. Then, 2^(−ΔΔCT) was calculated and expressed in terms of percentage relative to the normal disc value.

Compound | phosphorylation of Smad2 (TGF-beta1 signaling; pre-treated with 1004 of SB431542 for 1 hour, then TGF-beta1 5 ng/mL for 30 minutes) | distinction between nucleus pulposus and annulus fibrosus (degenerated disc tissue; Week 10) | extracellular matrix components in disc tissue (degenerated disc tissue; Week 10) | size of disc as compared to the DMSO-administered disc tissue (degenerated disc tissue; Week 10) | staining of cell nuclei in the nucleus pulposus region (degenerated disc tissue; Week 10, x400) | aggrecan gene expression as compared to the DMSO-administered disc tissue (aggrecan gene) | phosphorylation degree of Smad2 (TGF-beta1 signaling; peptide 1, 5 and 25 μM pre-incubated with TGF-beta1 5 ng/mL for 1 hour, cells treated 30 minutes) | extent of TGF-beta1 signaling inhibition (TGF-beta1 signaling; peptide 1, 5 and 25 μM, compared with SB431542)
NC(=O)c1ccc(-c2nc(-c3ccc4c(c3)OCO4)c(-c3ccccn3)[nH]2)cc1 [SB431542, reference compound] | complete inhibition of phosphorylation | – | – | – | – | – | – | –
LQVVYLH [Example 1] | – | discernible between the nucleus pulposus and the annulus fibrosus | abundance of extracellular matrix components | increased size of disc | vivid staining of the cell nuclei | increase in the aggrecan gene expression | decreased in a dose-dependent manner | does not completely inhibit TGF-beta1 signaling

— patent US8691749B2, “Peptide and use thereof” (Ensoltek Co., Ltd., priority 2009, dated 2014)
